15 compounds from patent US20230234936A1, “COMPOUND FOR TARGETING AND DEGRADING PROTEIN, AND PREPARATION METHOD THEREFOR AND USE THEREOF” (SHANGHAI LEADINGTAC PHARMACEUTICAL CO., LTD., priority 2020, published 2023) can be followed below.

Molecules are shown by their SMILES.

The target of the assay is T1, IRAK4 kinase (Homo sapiens, UniProt Q9NWZ3).
T1 sequence (Q9NWZ3 1-460): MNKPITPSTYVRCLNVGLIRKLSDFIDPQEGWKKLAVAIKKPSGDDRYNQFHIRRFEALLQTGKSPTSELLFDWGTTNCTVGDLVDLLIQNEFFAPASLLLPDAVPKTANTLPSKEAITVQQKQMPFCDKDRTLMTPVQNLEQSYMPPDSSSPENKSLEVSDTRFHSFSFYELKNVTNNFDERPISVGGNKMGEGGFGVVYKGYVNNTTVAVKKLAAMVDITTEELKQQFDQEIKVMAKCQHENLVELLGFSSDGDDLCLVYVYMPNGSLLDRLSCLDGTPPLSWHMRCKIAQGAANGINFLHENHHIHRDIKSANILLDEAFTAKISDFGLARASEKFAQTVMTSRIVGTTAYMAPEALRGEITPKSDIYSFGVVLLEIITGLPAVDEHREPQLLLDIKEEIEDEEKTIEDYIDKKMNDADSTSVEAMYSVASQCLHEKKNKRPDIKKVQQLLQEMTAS
The assay can be described thus: IRAK4 kinase activity test (KinEASE-STK S1 HTRF kit). The class given is biochemical. The note with it: 2.5 nM kinase, 1 μM biotinylated polypeptide substrate, 7 μM ATP, 37° C. 120 min. Here is the method:
KinEASE-STK S1 serine/threonine kinase kit (Cisbio) was used to detect the inhibitory effect of the compound on IRAK4 kinase activity. The specific method was: the compound was dissolved in dimethyl sulfoxide, and then it was diluted with the buffer solution of the kit by equal gradient to make the final concentration range of the tested compound in the reaction system 10000 nM-0.038 nM, then 2.5 nM kinase, 1 μM biotinylated polypeptide substrate and 7 μM adenosine triphosphate (ATP) were added in sequence and incubated at 37° C. for 120 min. Subsequently, anti-phosphorylated serine/threonine antibody coupled with europium element compound and modified XL665 streptavidin were added to the reaction system to terminate the reaction. After incubating at room temperature for 1 h, the fluorescence intensity of each well at the emission wavelength of 620 nm and 665 nm and the excitation wavelength of 337 nm was determined in HTRF mode on the microplate reader EnVision(PerkinElmer), the ratio value was calculated using the formula Ratio=(665 nm/620 nm)×10^4. By comparing with the fluorescence intensity ratio of the control group, the inhibition rate of the compound at each concentration was calculated, and then the IC50 value of the compound was obtained by fitting the nonlinear curve with the logarithmic concentration-inhibition rate by GraphPad Prism 7.
The IC50 is the point on the concentration scale where inhibition reaches its midpoint. Lower therefore signals greater potency in that assay. With `COc1cc2nn(C3CCN(CCCCCNC(=O)c4ccc(OC)c(N5CCC(=O)NC5=O)c4)CC3)cc2cc1NC(=O)c1cccc(C(F)(F)F)n1` [Example 4, N-(2-(1-(5-(3-(2,4-dioxotetrahydropyrimidin-1 (2H)-yl)-4-methoxybenzamido)pentyl)piperidin-4-yl)-6-methoxy-2H-indazol-5-yl)-6-(trifluoromethyl) pyridinecarboxamide], the 50% inhibitory concentration (IC50) turned out to be 12.2 nM. This counts as double-digit nanomolar.

`COc1cc2nn(C3CCN(CCOCCNC(=O)c4ccc(OC)c(N5CCC(=O)NC5=O)c4)CC3)cc2cc1NC(=O)c1cccc(C(F)(F)F)n1` [Example 5, N-(2-(1-(2-(2-(3-(2,4-dioxotetrahydropyrim-idin-1 (2H)-yl)-4-methoxybenz-amido)ethoxy)ethyl)piperidin-4-yl)-6-me-thoxy-2H-indazol-5-yl)-6-(trifluoromethyl) pyridinecarboxamide] displayed an IC50 of 9.1 nM. Compound `COc1cc2nn(C3CCN(CCOCCOCCNC(=O)c4ccc(OC)c(N5CCC(=O)NC5=O)c4)CC3)cc2cc1NC(=O)c1cccc(C(F)(F)F)n1` [Example 8, N-(2-(1-(2-(2-(2-(3-(2,4-dioxotetrahydropyrimidin-1 (2H)-yl)-4-methoxybenz-amido)ethoxy)ethoxy)ethyl)piperidin-4-yl)-6-methoxy-2H-indazol-5-yl)-6-(trifluoro-methyl) pyridin-carboxamide] registered an IC50 of 10.5 nM.

In turn, `COc1ccc(C(=O)N2CC3(CCN(CCN4CCC(n5cc6cc(NC(=O)c7cccc(C(F)(F)F)n7)c(C(C)(C)O)cc6n5)CC4)CC3)C2)cc1N1CCC(=O)NC1=O` [Example 13, N-(2-(1-(2-(2-(3-(2,4-dioxotetrahydropyrimidin-1 (2H)-yl)-4-methoxybenzoyl)-2,7-diazaspiro [3.5]non-7-yl)ethyl)piperidin-4-yl)-6-(2-hydroxyprop-2-yl)-2H-indazol-5-yl)-6-(trifluoro-methyl) pyridinecarboxamide] returned an IC50 of 7.9 nM. The value for `COc1cc2nn(C3CCN(CCN4CCN(C(=O)c5ccc(OC)c(N6CCC(=O)NC6=O)c5)CC4)CC3)cc2cc1NC(=O)c1cccc(C(F)(F)F)n1` [Example 14, N-(2-(1-(2-(4-(3-(2,4-dioxotetrahydropyrimidin-1 (2H)-yl)-4-methoxybenzoyl)piperazin-1-yl)ethyl)piperidin-4-yl)-6-methoxy-2H-indazol-5-yl)-6-(trifluoromethyl) pyridinecarboxamide] was 6.9 nM; that for `COc1cc2nn(C3CCN(CCN4CC5(CCN(C(=O)c6ccc(OC)c(N7CCC(=O)NC7=O)c6)CC5)C4)CC3)cc2cc1NC(=O)c1cccc(C(F)(F)F)n1` [Example 15, N-(2-(1-(2-(7-(3-(2,4-dioxo-tetrahydropyrim-idin-1 (2H)-yl)-4-methoxy-benzoyl)-2,7-diazaspiro [3.5]non-2-yl)ethyl)piperidin-4-yl)-6-methoxy-2H-in-dazol-5-yl)-6-(tri-fluoromethyl) pyridinecarbox-amide] was 6 nM; that for `CCOc1ccc(C(=O)N2CCC3(CCC(CCN4CCC(n5cc6cc(NC(=O)c7cccc(C(F)(F)F)n7)c(C(C)(C)O)cc6n5)CC4)CC3)CC2)cc1N1CCC(=O)NC1=O` [Example 24] was 34.6 nM. Next, `CC(C)(O)c1cc2nn(C3CCN(CCCC4CCN(C(=O)c5ccc(Cl)c(N6CCC(=O)NC6=O)c5)CC4)CC3)cc2cc1NC(=O)c1cccc(C(F)(F)F)n1` [Example 29]: 8.6 nM. Next, `CC(C)(O)c1cc2nn(C3CCN(CCC4CCC5(CC4)CCN(C(=O)c4ccc(OC(F)(F)F)c(N6CCC(=O)NC6=O)c4)CC5)CC3)cc2cc1NC(=O)c1cccc(C(F)(F)F)n1` [Example 37]: 30.5 nM; `CC(C)(O)c1cc2nn(C3CCN(CCC4CCC5(CC4)CCN(C(=O)c4ccc(C(F)(F)F)c(N6CCC(=O)NC6=O)c4)CC5)CC3)cc2cc1NC(=O)c1cccc(C(F)(F)F)n1` [Example 38, N-(2-(1-(2-(3-(3-(2,4-dioxotetrahydro-pyrimidin-1 (2H)-yl)-4-(trifluoro-methyl)benzoyl)-3-azaspiro[5.5]undec-9-yl)ethyl)piperidin-4-yl)-6-(2-hydroxyprop-2-yl)-2H-indazol-5-yl)-6-(trifluoro-methyl) pyridinecarbox-amide]: 34.5 nM. The compound `COc1cc2nn([C@H]3CC[C@H](CN(C)CCC4CCN(C(=O)c5ccc(F)c(C6CCC(=O)NC6=O)c5)CC4)CC3)cc2cc1NC(=O)c1cccc(C(F)(F)F)n1` (stereo partly drawn) [Example 52] gave a half-inhibitory concentration (IC50) of 9.2 nM. The value for `COc1cc2nn(C3CCC4(CC3)CCN(CC3CCN(C(=O)c5ccc(Cl)c(N6CCC(=O)NC6=O)c5)CC3)CC4)cc2cc1NC(=O)c1cccc(C(F)(F)F)n1` [Example 57, N-(2-(3-((1-(4-chloro-3-(2,4-dioxotetrahydro-pyrimidin-1 (2H)-yl)benzoyl)piperidin-4-yl)methyl)-3-azaspiro [5.5]undec-9-yl)-6-methoxy-2H-inda-zol-5-yl)-6-(triflu-oromethyl) pyridinecarbox-amide] was 3.8 nM; that for `COc1cc2nn([C@H]3CC[C@@H](N4CCC5(CCN(C(=O)c6ccc(Cl)c(N7CCC(=O)NC7=O)c6)CC5)CC4)CC3)cc2cc1NC(=O)c1cccc(C(F)(F)F)n1` [Example 59, N-(2-((1s,4s)-4-(9-(4-chloro-3-(2,4-dioxotetrahydro-pyrimidin-1 (2H)-yl)benzoyl)-3,9-diazaspiro[5.5]undec-3-yl)cyclohexyl)-6-methoxy-2H-inda-zol-5-yl)-6-(trifluoro-methyl) pyridinecarbox-amide] was 11 nM; that for `O=C1CCN(c2cc(C(=O)N3CCC4(CCC(CN5CCC(n6cc7cc(NC(=O)c8cccc(C(F)(F)F)n8)c(OC(F)(F)F)cc7n6)CC5)CC4)CC3)ccc2Cl)C(=O)N1` [Example 61, N-(2-(1-((3-(4-chloro-3-(2,4-dioxotetrahydro-pyrimidin-1 (2H)-yl)benzoyl)-3-azaspiro [5.5]undec-9-yl)methyl)piperidin-4-yl)-6-(trifluoromethoxy)-2H-indazol-5-yl)-6-(trifluoro-methyl) pyridinecarbox-amide] was 128 nM. Next, `CN(C[C@H]1CC[C@H](n2cc3cc(NC(=O)c4cccc(C(F)(F)F)n4)c(C(C)(C)O)cc3n2)CC1)C1CCC2(CC1)CCN(C(=O)c1ccc(Cl)c(N3CCC(=O)NC3=O)c1)CC2` [Example 63]: 4.4 nM.
